The values below come from patent publication US20220041538A1, “CA[…] ACID AND SALTS THEREOF” (EMERALD HEALTH PHARMACEUTICALS INC, priority 2018, published 2022).

One experiment deals with IL-6. The experiment is described as follows: Real-time quantitative PCR of striatum, 3NP model, IL-6. Conditions: 3NP mice vs 3NP+Vehicle; I 10 mg/kg oral and i.p.; IIe 30 mg/kg oral, 10 mg/Kg i.p.
The subject of another experiment is 6-OHDA challenged mice. Nature of the experiment: 6-OHDA murine model of Parkinson's disease (pole test, cylinder rearing test). To be noted: oral or intraperitoneal, 14 days. Type of experiment: in vivo. The method, then:
C57BL/6 mice were unilaterally injected intracerebroventricullarly with 6-hydroxydopamine (6-OHDA) or saline (control mice) and subjected to chronic intraperitoneal treatment with cannabigerol quinone acid (1) (oral […] in sesame oil, and intraperitoneal 10 mg/Kg in Tween80/Saline ( 1/16)) or vehicle (14 days), starting 16 h after the 6-OHDA injection. SHAM group corresponds to mice subjected to the surgical manipulation without injection of 6-OHDA. Motor coordination was evaluated by rotarod performance and motor activity was evaluated using a computer-aided actimeter. A: pole test results after oral treatment, B: cylinder rearing test results after oral treatment, C: pole test results after intraperitoneal treatment, D: cylinder rearing test results after intraperitoneal treatment.
Motor coordination was evaluated by rotarod performance and motor activity was evaluated using a computer-aided actimeter. A: pole test results after oral treatment, B: cylinder rearing test results after oral treatment, C: pole test results after intraperitoneal treatment, D: cylinder rearing test results after intraperitoneal treatment.
C57BL/6 mice pretreated intracerebroventricularly were anesthetized with an intraperitoneal injection of 200 mg/Kg of 2,2,2-tribromoethanol (Sigma-Aldrich) and placed in a stereotaxic frame with a mouse adapter (David Kopf Instruments, Tujunga, Calif., USA). […]
The pole test was used to detect bradykinesia and motor and cylinder rearing test to evaluate sensory-motor deficits in PD mice. For Pole test mice were placed head-upward on the top of a vertical rough-surfaced pole (diameter 8 mm; height 55 cm) and the time until animals descended to the floor was recorded with a maximum duration of 90 s. […] For Cylinder Rearing Test (CRT) the initial forepaw (left, right, or both) preference after placing the mouse in a methacrylate transparent cylinder of 15.5 cm in diameter and 12.7 cm in height was measured. […]

The test system of the next experiment is 3NP-intoxicated mice. The experiment is described as follows: 3NP murine model of Huntington's disease, behavioral score. Type of experiment: in vivo. To be noted: oral and intraperitoneal; I 10 mg/Kg both routes; sodium salt 30 mg/Kg oral, 10 mg/Kg i.p. The method, then:
Mice were subjected to behavioral tests for determining their neurological status after the treatment with oral cannabigerol quinone acid (I) (10 mg/Kg dissolved in sesame oil) and after intraperitoneal delivery (10 mg/Kg dissolved in ethanol/cremophor/saline). Hind limb clasping, Locomotor activity, and kyphosis were rated from 0 to 2 based on severity: a score of 0 typically indicates normal function and 2 seriously affected.
Mice were subjected to behavioral tests for determining their neurological status after the treatment with oral sodium salt of the cannabigerol quinone acid (30 mg/Kg dissolved saline) and after intraperitoneal delivery (10 mg/Kg dissolved in saline). Hind limb clasping, Locomotor activity, and kyphosis were rated from 0 to 2 based on severity: a score of 0 typically indicates normal function and 2 seriously affected. […]
Lesions of the striatum were induced with 3-NP in adult (16-week-old; 30 g) male C57BL/6 mice (Harlan Ibérica, Barcelona, Spain). […] We evaluated the general locomotor activity, the hindlimb clasping and dystonia, and the truncal dystonia. […]

The next experiment has as its target T1, PPARγ (Homo sapiens, UniProt P37231).
T1 sequence (P37231 238-505 limits assumed): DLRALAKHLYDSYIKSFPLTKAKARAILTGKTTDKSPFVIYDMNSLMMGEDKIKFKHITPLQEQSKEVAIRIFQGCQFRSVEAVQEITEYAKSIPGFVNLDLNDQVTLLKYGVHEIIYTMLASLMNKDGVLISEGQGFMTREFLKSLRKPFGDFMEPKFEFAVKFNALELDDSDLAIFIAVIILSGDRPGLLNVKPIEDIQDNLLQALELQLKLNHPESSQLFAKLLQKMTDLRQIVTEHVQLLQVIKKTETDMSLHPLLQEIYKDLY
Nature of the experiment: PolarScreen PPAR Competitor Assay (PPARγ binding, fluorescence polarization). The method, then: PPARγ binding activity was determined by using PolarScreen™ PPAR Competitor Assay kit (Life Technologies), according to the manufacturer's specifications. The PolarScreen™ PPAR Competitor Assay is a binding assay for determining IC50 values of compounds that bind to PPARγ.
Concentration of the compound of formula I and salts of formula II resulting in a half maximal shifts in polarization value determines the IC50.

In a further experiment the test system is TNFα. The experiment is described as follows: Real-time quantitative PCR of striatum, 3NP model, TNFα. To be noted: 3NP mice vs 3NP+Vehicle; I 10 mg/kg oral and i.p.; IIe 30 mg/kg oral, 10 mg/Kg i.p.
The subject of experiment [1] is striatum of 3NP-intoxicated mice. Nature of the experiment: Histological analysis of striatum in 3NP model (Nissl staining, Iba-1 immunostaining). Conditions: oral and intraperitoneal. Type of experiment: in vivo. The text has this: Loss of neurons in the striatum (Nissl staining) and Iba1 (microglia marker) were detected by immunostaining in the coronal sections of striatum of mice treated with vehicle, 3NP+ vehicle, 3NP+ compound I (oral and intraperitoneal). Quantification of Nissl staining (A) and Iba1 (B) positive cells in the mouse striatum. Total average number of neurons and microglia is shown.
Quantification of Nissl staining (A) and Iba1 (B) positive cells in the mouse striatum. Total average number of neurons and microglia is shown.
Brains from 3NP model were fixed in 4% paraformaldehyde and 5-μm-thick sections for Nissl staining and immunohistochemical analysis of Iba-1, a marker of microglial cells. For immunohistochemistry sections were incubated overnight at 4° C. with monoclonal anti-mouse Iba-1 antibody (Millipore, Mass., USA) used at 1/50 dilution. After incubation with the corresponding primary antibody, sections were washed in 0.1 M PBS and incubated O/N at 4° C. with goat anti-mouse (Millipore, Mass., USA) secondary antibody. […] Negative control sections were obtained using the same protocol with omission of the primary antibody. All sections for each immunohistochemical procedure were processed at the same time and under the same conditions. […]

In a further experiment the test system is Nrf2. Conditions: cited from earlier work.

Each structure is given as a SMILES string. Entries after “also recorded” stand apart in the source; their conditions may differ. Where two headings read alike, the source gives them in different places.

Procedure for IL-6: (§1) Expression levels were calculated using the 2^−ΔΔCt method. Values are expressed as means±SEM for 3 animals per group.
(§2) Total RNA was isolated from striata (3NP model) using RNeasy Lipid Tissue Mini Kit (Qiagen, GmbH). The total amount of RNA extracted was quantitated by spectrometry at 260 nm and its purity from the ratio between the absorbance values at 260 and 280 nm. Genomic DNA was removed to eliminate DNA contamination. Single-stranded complementary DNA was synthesized from up to 1 μg of total RNA (pool from at least 3 animals per group) using iScript™ cDNA Synthesis Kit (Bio-Rad, Hercules, Calif., USA). The reaction mixture was kept frozen at −20° C. until enzymatic amplification. The iQ™ SYBR Green Supermix (Bio-Rad) was used to quantify mRNA levels for TNF-α and IL-6. Real-time PCR was performed using a CFX96 Real-Time PCR Detection System (Bio-Rad). The GAPDH housekeeping gene was used to standardize the mRNA expression levels in every sample. Expression levels were calculated using the 2^−ΔΔCt method.
Procedure for TNFα: as §1, §2

Consider `CCCCCC1=C(C(=O)O)C(=O)C(C/C=C(\C)CCC=C(C)C)=C(O)C1=O` [I, cannabigerol quinone acid], for which the “gene expression of IL-6 in striatum” value in the experiment with IL-6 is on record as “down regulated; also recorded: attenuated the up-regulation”. In addition, the “bradykinesia (pole test)” value in the experiment with 6-OHDA challenged mice was “attenuated”. In the experiment with 6-OHDA challenged mice, the “clinical symptoms in 6-OH-DA challenged mice” value is reported as “alleviates clinical symptoms”. Also, the “motor deficit (cylinder rearing test)” value in the experiment on 6-OHDA challenged mice is “attenuated”. In addition, the “clinical symptoms induced by 3-NP intoxication (behavioral score: hind limb clasping, locomotor activity, kyphosis)” value in the experiment on 3NP-intoxicated mice is reported as “clearly alleviates the clinical symptoms”. Moreover, the “Remaining fluorescence polarization (%)” value is listed as 97.8% at PPARγ (compound concentration 0.01 ∝M); 97.3% at PPARγ (compound concentration 0.05 ∝M); 87.3% at PPARγ (compound concentration 0.1 ∝M); 78.2% on PPARγ (compound concentration 0.5 ∝M); 53.3% at PPARγ (compound concentration 1 ∝M); 20.7% at PPARγ (compound concentration 5 ∝M). For the same molecule, the results for the “Remaining fluorescence polarization (%)” value on PPARγ (compound concentration 10 ∝M), on PPARγ (compound concentration 25 ∝M) and on PPARγ (compound concentration 50 ∝M) were 16.5%, 24.4% and 34.4%, respectively. Further, the “gene expression of TNFα in striatum” value in the experiment on TNFα is “down regulated; also recorded: attenuated the up-regulation”. Moreover, the “reactive microgliosis (Iba-1+ cells)” value in experiment [1] is “prevented the induction of reactive microgliosis”. Moreover, in experiment [1], the “striatal neurons (Nissl staining) against 3NP toxicity” value is “preservation of striatal neurons”.

Take `CCCCCC1=CC(=O)C(C/C=C(\C)CCC=C(C)C)=C(O)C1=O` [VCE-003, cannabigerol hydroxy-quinone]: the “Nrf2 activation (electrophilic activity)” value with Nrf2 was “electrophilic (Nrf2 activation)”; in the experiment with Nrf2 (listed as CBG-Q), “activates the transcription factor Nrf2”.
